# According to US20260265689A1, “BIOHYBRID ROBOT INCLUDING RETINAL/BRAIN ORGANOID, MOTOR NERVE SPHEROID, AND MUSCLE BUNDLE, AND MANUFACTURING METHOD THEREFOR” (SOGANG UNIVERSITY RESEARCH & BUSINESS DEVELOPMENT FOUNDATION, priority 2023, published 2026):
# Columns and labels:
# [1] = test system: brain organoids; assay: Electrophysiological signal measurement of retinal/brain organoid conjugates using a multi-electrode array; assay type: cell-based, human; conditions: 100 μM glutamate mixed into the co-culture medium
# Method: The formation of conjugates of brain organoids and retinal organoids in Examples 1-3 above was confirmed through signal measurement using a multi-electrode array. Retinal/brain organoids were placed on electrodes of the multi-electrode array for signal measurement, and then the generation of electrophysiological signals was measured while light was applied to the retinal organoids. In addition, glutamate was added as a neurotransmitter to the co-culture medium used in the multi-electrode array, and electrophysiological signals generated from brain organoids were measured.
# [2] = test system: brain organoid of the versatile biohybrid robot; assay: Movement of the versatile biohybrid robot in co-culture media; design: species or system human; conditions: brain organoid stimulated using glutamate; 0.27 cm/min before stimulation
structure (smiles),measurement,setting,value
N[C@@H](CCC(=O)O)C(=O)O [glutamate],electrophysiological signals generated by stimulating brain organoids,[1],transmitted to the brain organoids
same,movement of the biohybrid robot after stimulation,[2],0.52 cm/min
